Laboratory results reported in patent publication US20250163104A1, “MACROCYCLIC IMMUNOMODULATORS” (priority 2021, published 2025).
Where a SMILES comes first, the peptide text is derived from it. Bridges are numbered along the chain shown (N, C = ends). [ ]: non-standard residue; d: D form. The star is where a group is joined. ξ: configuration not given here. Bip(4'-NHAc) = CC(=O)Nc1ccc(-c2ccc(C[C@H](N)C(=O)O)cc2)cc1; Phe(4-COOH) = N[C@@H](Cc1ccc(C(=O)O)cc1)C(=O)O; Bip = N[C@@H](Cc1ccc(-c2ccccc2)cc1)C(=O)O; Phe(3-Me) = Cc1cccc(C[C@H](N)C(=O)O)c1; Phe(4-Me) = Cc1ccc(C[C@H](N)C(=O)O)cc1; Val(3-OH) = CC(C)(O)[C@H](N)C(=O)O; 4Pal = N[C@@H](Cc1ccncc1)C(=O)O; Cha = N[C@@H](CC1CCCCC1)C(=O)O; Cit = NC(=O)NCCC[C@H](N)C(=O)O; Thr(3ξ) = CC(O)[C@H](N)C(=O)O; Carboxymethyl = O=C(O)C*; Orn = NCCC[C@H](N)C(=O)O; Dab = NCC[C@H](N)C(=O)O; Dap = NC[C@H](N)C(=O)O

Target: T1, human PD-1 / PD-L1-Ig binding on Jurkat cell line over-expressing human PD-1 (Jurkat-PD-1) (Homo sapiens, UniProt Q15116)
T1 construct: expressed in transfected cells; host or cells: Jurkat
Test: Jurkat-PD-1 Cell Binding High-Content Screening Assay (CBA)
Format: cell-based
Details: Jurkat-PD-1 cells, PE-labeled PD-L1-Ig 20 nM final; read-out: Jurkat HPD1_PDL1 IC50
Method in brief: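 Jurkat-hPD-1 cells in DMEM with 10% fetal calf serum receive test compound and are held at 37° C for 2 h. PE-labeled PD-L1-Ig is added at 20 nM final and left for 1 hour. Cells are then fixed and Hoechst-stained, and binding is measured by imaging.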

T1 sequence (Q15116 25-288): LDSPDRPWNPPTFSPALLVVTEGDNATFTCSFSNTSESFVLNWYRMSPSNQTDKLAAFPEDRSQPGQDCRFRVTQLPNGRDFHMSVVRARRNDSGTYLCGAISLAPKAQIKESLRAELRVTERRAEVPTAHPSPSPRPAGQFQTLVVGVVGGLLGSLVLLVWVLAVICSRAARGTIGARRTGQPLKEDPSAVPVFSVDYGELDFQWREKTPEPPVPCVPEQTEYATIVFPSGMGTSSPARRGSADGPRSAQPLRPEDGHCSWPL

IC50 [nM]	Compound
35.9	CC(C)[C@@H]1NC(=O)[C@H](Cc2c[nH]c3ccccc23)NC(=O)[C@H](CC(=O)O)NC(=O)[C@H](Cc2ccncc2)NC(=O)[C@H](Cc2ccc(OCC(=O)O)cc2)NC(=O)CSC[C@@H](C(=O)N[C@@H](C)C(N)=O)NC(=O)[C@H]([C@@H](C)O)NC(=O)[C@H](C(C)C)NC(=O)[C@H](CC2CCCCC2)NC(=O)[C@H](CCN)NC(=O)[C@@H](Cc2ccccc2)NC(=O)[C@H](CCCN)NC(=O)[C@H](CCC(=O)O)NC(=O)[C@H](Cc2ccc(-c3ccccc3)cc2)NC1=O [Compound 1434] ({CH2CO}-Y(Carboxymethyl)[4Pal]DWV[Bip]E[Orn][dF][Dab][Cha]VTCA-NH2; thioether N-14)
13.4	CCC(C)[C@@H]1NC(=O)[C@H](Cc2ccc(-c3ccccc3)cc2)NC(=O)[C@H](C(C)C)NC(=O)[C@H](Cc2c[nH]c3ccccc23)NC(=O)[C@H](CC(=O)O)NC(=O)[C@H](Cc2ccc(-c3cccc(C(=O)O)c3)cc2)NC(=O)[C@H](CN)NC(=O)CSC[C@@H](C(=O)N[C@@H](C)C(N)=O)NC(=O)[C@H]([C@@H](C)O)NC(=O)[C@H](C(C)C)NC(=O)[C@H](CC2CCCCC2)NC(=O)[C@H](CCN)NC(=O)[C@@H](CC(C)C)NC(=O)[C@H](CCCN)NC1=O (some centres unmarked) [Compound 2219]
8	CC(C)C[C@@H]1NC(=O)[C@H](Cc2c[nH]c3ccccc23)NC(=O)[C@H](CC(=O)O)NC(=O)[C@H](Cc2ccncc2)NC(=O)[C@H](Cc2ccc(OCC(=O)O)cc2)NC(=O)CSC[C@@H](C(=O)NCC(N)=O)NC(=O)[C@H](CO)NC(=O)[C@H](C(C)C)NC(=O)[C@H](CC(C)C)NC(=O)[C@H](CCN)NC(=O)[C@@H](CC(C)C)NC(=O)[C@H](CCCN)NC(=O)[C@H](C(C)C)NC(=O)[C@H](Cc2ccc(-c3ccccc3)cc2)NC1=O [Compound 1258] ({CH2CO}-Y(Carboxymethyl)[4Pal]DWL[Bip]V[Orn][dL][Dab]LVSCG-NH2; thioether N-14)
234	CC(C)C[C@@H]1NC(=O)[C@H](Cc2c[nH]c3ccccc23)NC(=O)[C@H](CC(=O)O)NC(=O)[C@H](Cc2ccc(OCC(=O)O)cc2)NC(=O)[C@H](C(C)O)NC(=O)CSC[C@@H](C(N)=O)NC(=O)[C@H](CO)NC(=O)[C@H](C(C)C)NC(=O)[C@H](CC2CCCCC2)NC(=O)[C@H](Cc2cnc[nH]2)NC(=O)[C@@H](CC(C)C)NC(=O)[C@H](Cc2cnc[nH]2)NC(=O)[C@H](C(C)C)NC(=O)[C@H](Cc2ccc(-c3ccccc3)cc2)NC1=O (stereo partly drawn) [Compound 2604] ({CH2CO}-[Thr(3ξ)]Y(Carboxymethyl)DWL[Bip]VH[dL]H[Cha]VSC-NH2; thioether N-14)
42.9	CC(C)C[C@@H]1NC(=O)[C@H](CCN)NC(=O)[C@@H](CC(C)C)NC(=O)[C@H](CCCN)NC(=O)[C@H](CCCNC(=N)N)NC(=O)[C@H](Cc2ccc(-c3ccccc3)cc2)NC(=O)[C@H](C(C)C)NC(=O)[C@H](Cc2c[nH]c3ccccc23)NC(=O)[C@H](CC(=O)O)NC(=O)[C@H](Cc2ccc(C(=O)O)cc2)NC(=O)[C@H](Cc2ccc(OCC(=O)O)cc2)NC(=O)CSC[C@@H](C(=O)N[C@@H](C)C(N)=O)NC(=O)[C@H]([C@@H](C)O)NC(=O)[C@H](C(C)C)NC1=O [Compound 1243] ({CH2CO}-Y(Carboxymethyl)[Phe(4-COOH)]DWV[Bip]R[Orn][dL][Dab]LVTCA-NH2; thioether N-14)
22.6	CC(=O)Nc1ccc(-c2ccc(C[C@@H]3NC(=O)[C@H](CN)NC(=O)CSC[C@@H](C(=O)N[C@@H](C)C(N)=O)NC(=O)[C@H]([C@@H](C)O)NC(=O)[C@H](C(C)C)NC(=O)[C@H](CC4CCCCC4)NC(=O)[C@H](CCN)NC(=O)[C@@H](CC(C)C)NC(=O)[C@H](CCCN)NC(=O)[C@H](CCCNC(N)=O)NC(=O)[C@H](Cc4ccc(-c5ccccc5)cc4)NC(=O)[C@H](C(C)C)NC(=O)[C@H](Cc4c[nH]c5ccccc45)NC(=O)[C@H](CC(=O)O)NC3=O)cc2)cc1 [Compound 2124] ({CH2CO}-[Dap][Bip(4'-NHAc)]DWV[Bip][Cit][Orn][dL][Dab][Cha]VTCA-NH2; thioether N-14)
10.5	CC(C)C[C@H]1NC(=O)[C@H](CCCN)NC(=O)[C@H](C(C)C)NC(=O)[C@H](Cc2ccc(-c3ccccc3)cc2)NC(=O)[C@H](C(C)C)NC(=O)[C@H](Cc2c[nH]c3ccccc23)NC(=O)[C@H](CC(=O)O)NC(=O)[C@H](Cc2ccc(OCC(=O)O)cc2)NC(=O)[C@H](CN)NC(=O)CSC[C@@H](C(=O)N[C@@H](C)C(N)=O)NC(=O)[C@H]([C@@H](C)O)NC(=O)[C@H](C(C)C)NC(=O)[C@H](CC2CCCCC2)NC(=O)[C@H](CCC(N)=O)NC1=O [Compound 1520] ({CH2CO}-[Dap]Y(Carboxymethyl)DWV[Bip]V[Orn][dL]Q[Cha]VTCA-NH2; thioether N-14)

The next lines start with the molecule.

Compound	IC50 [nM]
Cc1cccc(C[C@@H]2NC(=O)[C@H](CC(=O)O)NC(=O)[C@H](Cc3ccc(OCC(=O)O)cc3)NC(=O)[C@H](Cc3ccncc3)NC(=O)CSC[C@@H](C(=O)N[C@H](CC(N)=O)C(N)=O)NC(=O)[C@H](CO)NC(=O)[C@H](C(C)(C)O)NC(=O)[C@H](CC3CCCCC3)NC(=O)[C@H](CCN)NC(=O)[C@@H](CC(C)C)NC(=O)[C@H](CCCN)NC(=O)[C@H](Cc3ccc(OCC(=O)O)cc3)NC(=O)[C@H](Cc3ccc(-c4ccccc4)cc3)NC(=O)[C@H](Cc3ccc(C(=O)O)cc3)NC2=O)c1 [Compound 2628] ({CH2CO}-[4Pal]Y(Carboxymethyl)D[Phe(3-Me)][Phe(4-COOH)][Bip]Y(Carboxymethyl)[Orn][dL][Dab][Cha][Val(3-OH)]SC[dN]-NH2; thioether N-14)	20.6
Cc1cccc(C[C@@H]2NC(=O)[C@H](CC(=O)O)NC(=O)[C@H](Cc3ccncc3)NC(=O)[C@H](CN)NC(=O)CSC[C@@H](C(=O)NCC(N)=O)NC(=O)[C@H](CO)NC(=O)[C@H](C(C)C)NC(=O)[C@H](CC(C)C)NC(=O)[C@H](CCN)NC(=O)[C@@H](CC(C)C)NC(=O)[C@H](CCCN)NC(=O)[C@H](C(C)C)NC(=O)[C@H](Cc3ccc(-c4ccccc4)cc3)NC(=O)[C@H](CC(C)C)NC2=O)c1 [Compound 1261] ({CH2CO}-[Dap][4Pal]D[Phe(3-Me)]L[Bip]V[Orn][dL][Dab]LVSCG-NH2; thioether N-14)	13.1
CC(C)C[C@@H]1NC(=O)[C@H](Cc2c[nH]c3ccccc23)NC(=O)[C@H](CC(=O)O)NC(=O)[C@H](Cc2ccncc2)NC(=O)[C@H](Cc2ccc(OCC(=O)O)cc2)NC(=O)CSC[C@@H](C(=O)NCC(N)=O)NC(=O)[C@H](CO)NC(=O)[C@H](C(C)C)NC(=O)[C@H](CC(C)C)NC(=O)[C@H](CC(N)=O)NC(=O)[C@@H](CC(C)C)NC(=O)[C@H](CCN)NC(=O)[C@H](C(C)C)NC(=O)[C@H](Cc2ccc(-c3ccccc3)cc2)NC1=O [Compound 1282] ({CH2CO}-Y(Carboxymethyl)[4Pal]DWL[Bip]V[Dab][dL]NLVSCG-NH2; thioether N-14)	11.8
Cc1ccc(C[C@@H]2NC(=O)[C@H](C(C)O)NC(=O)CSC[C@@H](C(=O)N[C@@H](CCN)C(N)=O)NC(=O)[C@H](CO)NC(=O)[C@H](C(C)(C)O)NC(=O)[C@H](CC3CCCCC3)NC(=O)[C@H](CCN)NC(=O)[C@@H](CC(C)C)NC(=O)[C@H](CCCN)NC(=O)[C@H](Cc3ccc(OCC(=O)O)cc3)NC(=O)[C@H](Cc3ccc(-c4ccccc4)cc3)NC(=O)[C@H](Cc3ccc(OCC(=O)O)cc3)NC(=O)[C@H](Cc3cccc(C)c3)NC(=O)[C@H](CC(=O)O)NC2=O)cc1 (stereo partly drawn) [Compound 2667] ({CH2CO}-[Thr(3ξ)][Phe(4-Me)]D[Phe(3-Me)]Y(Carboxymethyl)[Bip]Y(Carboxymethyl)[Orn][dL][Dab][Cha][Val(3-OH)]SC[Dab]-NH2; thioether N-14)	11.4
